From US9725434B2, “Hydroxy-substituted orexin receptor antagonists” (MERCK SHARP & DOHME CORP., priority 2013, dated 2017)
pIC50: −log10 of the molar value.

Tests used:
[1] = biological target: human orexin-2 receptor (hOX2R) (Homo sapiens (Human), UniProt O43614); test: FLIPR Ca2+ Flux Assay, hOX2R; format: cell-based; conditions: CHO cells expressing hOX2R; agonist 70 pM Ala-6,12 orexin-A
Procedure: In a typical experiment the OX1 and OX2 receptor antagonistic activity of the compounds of the present invention was determined in accordance with the following experimental method. For intracellular calcium measurements, Chinese hamster ovary (CHO) cells expressing the rat orexin-1 receptor or the human orexin-2 receptor, are grown in Iscove's modified DMEM containing 2 mM L-glutamine, […], 1% hypoxanthine-thymidine supplement, 100 U/ml penicillin, 100 μg/ml streptomycin and 10% heat-inactivated fetal calf serum (FCS). The cells are seeded at 20,000 cells/well into Becton-Dickinson black 384-well clear bottom sterile plates coated with poly-D-lysine. All reagents were from GIBCO-Invitrogen Corp. The seeded plates are incubated overnight at 37° C. and 5% CO2. Ala-6,12 human orexin-A as the agonist is prepared as a 1 mM stock solution in 1% bovine serum albumin (BSA) and diluted in assay buffer (HBSS containing 20 mM HEPES, 0.1% BSA and 2.5 mM probenecid, pH7.4) for use in the assay at a final concentration of 70 pM. Test compounds are prepared as 10 mM stock solution in DMSO, then diluted in 384-well plates, first in DMSO, then assay buffer. On the day of the assay, cells are washed 3 times with 100 μl assay buffer and then incubated for 60 min (37° C., 5% CO2) in 60 μl assay buffer containing 1 μM Fluo-4AM ester, 0.02% pluronic acid, and 1% BSA. The dye loading solution is then aspirated and cells are washed 3 times with 100 μl assay buffer. 30 μl of that same buffer is left in each well. Within the Fluorescent Imaging Plate Reader (FLIPR, Molecular Devices), test compounds are added to the plate in a volume of 25 μl, incubated for 5 min and finally 25 μl of agonist is added. Fluorescence is measured for each well at 1 second intervals for 5 minutes and the height of each fluorescence peak is compared to the height of the fluorescence peak induced by 70 pM Ala-6,12 orexin-A with buffer in place of antagonist. […] Alternatively, compound potency can be assessed by a radioligand binding assay (described in Bergman et. al. Bioorg. Med. Chem. Lett. 2008, 18, 1425-1430) in which the inhibition constant (Ki) is determined in membranes prepared from CHO cells expressing either the OX1 or OX2 receptor. The intrinsic orexin receptor antagonist activity of a compound which may be used in the present invention may be determined by these assays.
(§1) Chinese hamster ovary (CHO) cells expressing the human orexin-1 receptor (hOX1R) or the human orexin-2 receptor (hOX2R) were grown in Iscove's modified DMEM containing 2 mM L-glutamine, […], 1% hypoxanthine-thymidine supplement, 100 U/ml penicillin, 100 μg/ml streptomycin and 10% heat-inactivated fetal calf serum (FCS). The cells were seeded at 20,000 cells/well into Becton-Dickinson black 384-well clear bottom sterile plates coated with poly-D-lysine. All reagents were from GIBCO-Invitrogen Corp. The seeded plates were incubated overnight at 37° C. and 5% CO2. Ala-6,12 human orexin-A, used as the agonist, was prepared as a 1 mM stock solution in 1% bovine serum albumin (BSA) and diluted in assay buffer (HBSS containing 20 mM HEPES, 0.1% BSA and 2.5 mM probenecid, pH7.4) for use in the assay at a final concentration of 70 pM. Test compounds were prepared as 10 mM stock solution in DMSO, then diluted in 384-well plates, first in DMSO, then assay buffer.
On the day of the assay, cells were washed 3× with 100 μl assay buffer and then incubated for 60 minutes (37° C., 5% CO2) in 60 μl assay buffer containing 1 μM Fluo-4AM ester, 0.02% pluronic acid, and 1% BSA. The dye loading solution was then aspirated and cells were washed 3× with 100 μl assay buffer.

[2] = biological target: human orexin-1 receptor (hOX1R) (Homo sapiens, UniProt O43613); test: FLIPR Ca2+ Flux Assay, hOX1R; format: cell-based; conditions: CHO cells expressing hOX1R; agonist 70 pM Ala-6,12 orexin-A
Procedure: as §1
On the day of the assay, cells were washed 3× with 100 μl assay buffer and then incubated for 60 minutes (37° C., 5% CO2) in 60 μl assay buffer containing 1 μM Fluo-4AM ester, 0.02% pluronic acid, and 1% BSA. The dye loading solution was then aspirated and cells were washed 3× with 100 μl assay buffer. 30 μl of that same buffer was left in each well. Within the Fluorescent Imaging Plate Reader (FLIPR, Molecular Devices), test compounds were added to the plate in a volume of 25 μl, incubated for 5 minutes, and then 25 μl of agonist was added. Fluorescence was measured for each well at 1 second intervals for 5 minutes, and the height of each fluorescence peak was compared to the height of the fluorescence peak induced by 70 pM of Ala-6,12 orexin-A with buffer in place of test compound.

Chain of human orexin-2 receptor (hOX2R) (O43614 whole entry): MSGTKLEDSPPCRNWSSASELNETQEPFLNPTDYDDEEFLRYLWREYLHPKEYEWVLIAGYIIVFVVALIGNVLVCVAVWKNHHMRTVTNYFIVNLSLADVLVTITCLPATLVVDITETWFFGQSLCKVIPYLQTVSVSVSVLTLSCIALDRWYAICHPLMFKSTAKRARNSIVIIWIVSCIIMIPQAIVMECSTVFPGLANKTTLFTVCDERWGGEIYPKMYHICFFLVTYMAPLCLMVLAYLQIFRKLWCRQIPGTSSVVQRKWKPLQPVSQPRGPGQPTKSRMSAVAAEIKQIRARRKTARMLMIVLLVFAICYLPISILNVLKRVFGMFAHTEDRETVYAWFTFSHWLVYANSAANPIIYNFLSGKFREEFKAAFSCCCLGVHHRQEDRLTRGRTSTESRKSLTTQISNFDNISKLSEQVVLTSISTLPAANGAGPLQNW

| Molecule | pIC50 [1] | pIC50 [2] |
| --- | --- | --- |
| C[C@@H]1CC[C@@H](Oc2cc([C@](C)(O)C3CC3)ccn2)CN1C(=O)c1ccccc1-n1nccn1 [Example 11, (1R)-1-cyclopropyl-1-(2-{[(3R,6R)-6-methyl-1-{[2-(2H-1,2,3-triazol-2-yl)phenyl]carbonyl}piperidin-3-yl]oxy}pyridin-4-yl)ethanol] | 7.85 | 6.53 |
| CC(O)c1cccc(O[C@@H]2CC[C@@H](C)N(C(=O)c3ccccc3-c3ncccn3)C2)c1 (stereo partly drawn) [Example 3, 1-[3-({(3R,6R)-6-Methyl-1-[(2-pyrimidin-2-ylphenyl)carbonyl]piperidin-3-yl}oxy)phenyl]ethanol] | 6.92 | 5.37 |
| (1R)-1-Methyl-6-{[(3R,6R)-6-methyl-1-{[2-(2H-1,2,3-triazol-2-yl)phenyl]carbonyl}piperidin-3-yl]oxy}-2,3-dihydro-1H-inden-1-ol [Example 34] | 6.95 | 5.93 |
| C[C@@H]1CC[C@@H](Oc2ccc3c(c2)C(C)(O)CC3)CN1C(=O)c1ccccc1-n1nccn1 (stereo partly drawn) [Example 33, 1-Methyl-6-{[(3R,6R)-6-methyl-1-{[2-(2H-1,2,3-triazol-2-yl)phenyl]carbonyl}piperidin-3-yl]oxy}-2,3-dihydro-1H-inden-1-ol] | 7.64 | 6.13 |
| C[C@@H]1CC[C@@H](Oc2cccc(C(C)(O)C3CC3)c2)CN1C(=O)c1ccccc1-n1nccn1 (stereo partly drawn) [Example 15, 1-Cyclopropyl-1-(3-{[(3R,6R)-6-methyl-1-{[2-(2H-1,2,3-triazol-2-yl)phenyl]carbonyl}-piperidin-3-yl]oxy}phenyl)ethanol] | 7.44 | 5.68 |
| CC(O)c1cccc(O[C@@H]2CC[C@@H](C)N(C(=O)c3ccccc3-n3nccn3)C2)c1 (stereo partly drawn) [Example 1, 1-(3-{[(3R,6R)-6-Methyl-1-{[2-(2H-1,2,3-triazol-2-yl)phenyl]carbonyl}piperidin-3-yl]oxy}phenyl)ethanol] | 7.01 | 5.35 |
